Results from patent publication US6362212B1, “Oxime derivative and bactericide containing the same as active ingredient” (Shionogi & Company, Ltd., priority 1994, dated 2002).

Legend:
Type in all cases: in vivo
Pyricularia oryzae = settings: foliage spray on rice seedlings (cv. […]), number of lesions six days after the inoculation
Sphaerotheca fuliginea = assay: Controlling effect on Sphaerotheca fuliginea by foliage application (pot experiment); settings: foliage spray on cucumber (cv. TSUKUBASHIROIBO) first leaves, infected area after 10 days in greenhouse at 20° C.; for pest or weed control at 500 ppm: Podosphaera fuliginea, in Cucumis sativus, foliar, 240 h, read-out: Controlling effect on Sphaerotheca fuliginea by foliage application at 500 ppm (percent control)
How it was run: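 First leaves of cucumber seedlings, 2-3 weeks old, were sprayed with compound (DMF solution diluted in water with spreader). They were inoculated 24 h later with a Sphaerotheca fuliginea conidia spray and kept 10 days at 20° C in a greenhouse. Percent control was calculated from infected leaf area.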

[1] = test system: Erysiphe graminis f. sp. tritici; assay: Controlling effect on Erysiphe graminis f. sp. tritici by foliage application (pot experiment); settings: foliage spray on wheat (cv. NORIN No. 61) seedlings, infected area after 10 days in greenhouse at 20° C.; for pest or weed control at 500 ppm: Blumeria graminis, foliar, 240 h, read-out: Controlling effect on ErYsiphe graminis f. sp. tritici by foliage application at 500 ppm (percent control)
How it was run: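 Wheat seedlings (cv. NORIN No. 61, 2-3 weeks old) sprayed with compound in DMF diluted in water with spreader, then inoculated with conidia 24 hours later. Kept in greenhouse at 20 °C for 10 days; percent control calculated from infected leaf area.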

[2] = test system: Pseudoperonospora cubensis; assay: Controlling effect on Pseudoperonospora cubensis by foliage application (pot experiment); settings: foliage spray on cucumber (var. TSUKUBASHIROIBO) first leaves, lesion area after 10 days in moist chamber at 20° C.
Description: The following Test Examples illustrate the effects of the fungicide of the present invention. (I. Controlling effects on various plant diseases by foliage application (pot experiment)) A test compound was dissolved in a small amount of N,N-dimethylformamide, and the solution was diluted to a given concentration with distilled water containing a spreader. Thus, a liquid sample to be tested was prepared. The liquid sample was sprayed to test plants, and 24 hours thereafter, pathogens were inoculated by the method described below. […] The seeds of cucumber (var.: […]) were sown in plastic cups (each 9 cm in diameter), followed by cultivation for 2 to 3 weeks. The test compound in the form of a solution or suspension was sprayed to the surface of their first leaves, and a zoosporangia suspension of Pseudoperonospora cubensis cultured on cucumber leaves was dropped on the above leaf surfaces to inoculate the test plants with the pathogen. After the inoculation, the plants were kept in a moist chamber at 20° C. for 10 days. Then, the area of the lesions around the inoculum were observed and the percent control was calculated.

SMILES	Controlling effect on PYricularia orYzae by foliage application at 500 ppm (percent control) (Pyricularia oryzae)	Controlling effect on Sphaerotheca fuliginea by foliage application at 500 ppm (percent control) (Sphaerotheca fuliginea)	Controlling effect on ErYsiphe graminis f. sp. tritici by foliage application at 500 ppm (percent control) [1] [percent control]	Controlling effect on Pseudoperonospora cubensis by foliage application at 500 ppm (percent control) [2] [percent control]	pest or weed control at 500 ppm (Sphaerotheca fuliginea) [%]	pest or weed control at 500 ppm [1] [%]
CON=C(c1ccno1)c1ccccc1COc1ccccc1C (single isomer, unassigned) [512A]	90	100	97	100		
CON=C(c1ccccc1ON=C(C)c1cccc(C(F)(F)F)c1)C1NCCS1 (stereo not drawn) [Compound No. 2799, 2-[(α-methyl-3-trifluoromethylbenzylidene)aminooxy]phenyl thiazolidin-2-yl ketone O-methyloxime]	100			95	100	97
CON=C(c1ccon1)c1ccccc1COc1ccccc1Cl (mixture of isomers) [compound 305]	70	100	90	100		
CON=C(c1ccccc1COc1cc(Cl)ccc1Cl)c1nccn1C (single isomer, unassigned) [131A]	90	100	90	100		
CON=C(c1cc(C)no1)c1ccccc1COc1ccc(Cl)cc1C (single isomer, unassigned) [641A]	70	100	90	100		
CON=C(c1ccon1)c1ccccc1COc1cccc(C)c1 (mixture of isomers) [compound 313]	90	100	70	100		
CON=C(c1nnco1)c1ccccc1COc1cccc(Cl)c1 [compound 706]	70	100	90	100		
CON=C(c1ccccc1COc1ccccc1Cl)c1nccn1C (single isomer, unassigned) [105A]	97	100	70	100		
CON=C(c1cc(C)no1)c1ccccc1COc1ccc(C)cc1 (single isomer, unassigned) [614B]	70	97	70	100		
CON=C(c1ccccc1COc1cccc(C)c1)c1nccn1C (single isomer, unassigned) [113A]	97	100	90	100		
CON=C(c1ccno1)c1ccccc1COc1ccc(Cl)cc1C (single isomer, unassigned) [541B]	70	100	90	100		
CON=C(c1cc(C)no1)c1ccccc1COc1ncc(C(F)(F)F)cc1Cl (single isomer, unassigned) [690A, 2-(3-chloro-5-trifluoromethyl-2-pyridyloxymethyl)phenyl 3-methylisoxazol-5-yl ketone O-methyloxime]	97			100	100	100
CON=C(c1nnco1)c1ccccc1COc1cc(Cl)ccc1Cl [compound 731]	70	100	70	100		
CON=C(c1ccccc1CON=C(C)c1cccc(C(F)(F)F)c1)C1SCCN1C (centres unmarked) [Compound No. 2839]	90	100	97	95		
CCc1cccc(OCc2ccccc2C(=NOC)c2nnco2)c1 [compound 716]	70	100	70	100		
CON=C(c1ccon1)c1ccccc1COc1cccc(Cl)c1 (mixture of isomers) [compound 306]	70	97	70	100		
CON=C(c1ccno1)c1ccccc1COc1ccccc1C (single isomer, unassigned) [512B]	97	100	97	100		
